Patent US7906656B2, “Iodopyrazolyl carboxanilides” (Bayer CropScience AG, priority 2003, dated 2011)

system: Alternaria solani; assay: Alternaria test (tomato)/protective; type: in vivo; conditions: protective, application rate 750 g/ha, evaluation 7 days after inoculation
Procedure: To produce a suitable preparation of active compound, 1 part by weight of active compound is mixed with the stated amounts of solvent and emulsifier, and the concentrate is diluted with water to the desired concentration. To test for protective activity, young tomato plants are sprayed with the preparation of active compound at the stated application rate. 1 day after the treatment, the plants are inoculated with a spore suspension of Alternaria solani and are then allowed to stand at 100% relative atmospheric humidity and 20° C. for 24 h. The plants are then allowed to stand at 96% relative atmospheric humidity and a temperature of 20° C. The evaluation is carried out 7 days after the inoculation. 0% means an efficacy which corresponds to that of the control, whereas an efficacy of 100% means that no infection is observed.

Point of comparison: `Cn1cc(C(=O)Nc2ccccc2-c2ccc(F)c(Cl)c2)c(I)n1` [drawing 127], Efficacy in % 100%. Against it:
- Cn1cc(C(=O)Nc2ccccc2-c2ccc(I)cc2)c(I)n1 [drawing 125] — the same, 100%
- Cn1cc(C(=O)Nc2ccc(F)cc2-c2ccc(Cl)c(Cl)c2)c(I)n1 [drawing 126] — the same, 100%

system: Pyrenophora teres; assay: Pyrenophora teres test (barley)/protective; type: in vivo; conditions: 192 h, protective, application rate 500 g/ha, evaluation 8 days after inoculation, read-out: Efficacy in %
Procedure: To produce a suitable preparation of active compound, 1 part by weight of active compound is mixed with the stated amounts of solvent and emulsifier, and the concentrate is diluted with water to the desired concentration. To test for protective activity, young plants are sprayed with the preparation of active compound at the stated application rate. After the spray coating has dried on, the plants are sprayed with a conidia suspension of Pyrenophora teres. The plants remain in an incubation cabin at 20° C. and 100% relative atmospheric humidity for 48 hours. The plants are then placed in a greenhouse at a temperature of about 20° C. and a relative atmospheric humidity of about 80%. Evaluation is carried out 8 days after the inoculation. 0% means an efficacy which corresponds to that of the control, whereas an efficacy of 100% means that no infection is observed.

Point of comparison: `CC(CC(C)(C)C)c1ccccc1NC(=O)c1cn(C)nc1I` (stereo not shown) [drawing 101], pest or weed control at 500 g/ha 93%. Against it:
- CC(C)CC(C)c1ccccc1NC(=O)c1cn(C)nc1I (stereo not shown) [drawing 102] — higher, 100%
- Cn1cc(C(=O)Nc2ccccc2-c2ccc(Cl)c(F)c2)c(I)n1 [drawing 103] — higher, 100%
- Cn1cc(C(=O)Nc2ccccc2-c2ccc(I)cc2)c(I)n1 [drawing 104] — higher, 100%
- Cn1cc(C(=O)Nc2ccccc2-c2ccc(Cl)cc2)c(I)n1 [drawing 105] — higher, 100%
- Cn1cc(C(=O)Nc2ccccc2-c2ccc(F)c(Cl)c2)c(I)n1 [drawing 106] — higher, 100%
- Cn1cc(C(=O)Nc2ccccc2-c2ccc(Br)cc2)c(I)n1 [drawing 107] — higher, 100%
- Cn1cc(C(=O)Nc2ccccc2-c2ccc(C(F)(F)F)c(F)c2)c(I)n1 [drawing 108] — higher, 100%
- CC(=O)N(C(=O)c1cn(C)nc1I)c1ccccc1C(C)CC(C)C (stereo not shown) [drawing 109] — higher, 100%
- CC(C)CC(C)c1cc(F)ccc1NC(=O)c1cn(C)nc1I (stereo not shown) [drawing 110] — higher, 100%
